{
  "source": "patent US20260263415A1",
  "about": "“Sulfonamides With Activity in Acute Kidney Injury and Fibrosis” (University of Pittsburgh - Of the Commonwealth System of …, priority 2023, published 2026)",
  "system": "Zebrafish larvae injected with gentamicin",
  "assay": "Zebrafish gentamicin kidney injury survival assay",
  "assay_type": "in vivo",
  "description": "Potential efficacy was tested in zebrafish assays, essentially as follows. Zebrafish were maintained as described (see, e.g., Cianciolo Cosentino, C., et al. (2013) Histone deacetylase inhibitor enhances recovery after AKI. J Am Soc Nephrol, 24 (6), 943-53 and Skrypnyk, N. I., et al. (2016) Delayed treatment with PTBA analogs reduces postinjury renal fibrosis after kidney injury. Am J Physiol Renal Physiol, 310 (8), F705-F716), and embryos from Pitt AB wildtype were used. Zebrafish larvae were injected with a single dose of gentamicin at 3 dpf with 7 ng of gentamicin as previously described. Prior to the gentamicin injection, 3 dpf zebrafish larvae were anesthetized in 0.2% tricaine/E3 medium (5 mM NaCl, 0.33 mM CaCl2), 0.33 mM MgSO4, and 0.17 mM KCl). Glass capillaries were pulled to produce microneedles and were aspirated with […] of 7 ng/nL gentamicin solution diluted with filtered saline solution (Aspen Veterinary Resources, Cat No. 17861615). The larvae were injected with 1 nL gentamicin solution, delivered via the common cardinal vein. After injection, larvae were incubated in 50 μg/mL penicillin/streptomycin diluted in E3 medium. […]\nData were analyzed as compounds that extend survival as measured by Kaplan-Meier estimator.\nTable A provides preliminary calculated hazard ratios (n=1) for tested compounds (see also FIGS. 3A and 3B). […]",
  "data": [
    {"smiles": "COC(=O)CCCSc1ccccc1", "note": "[UPHD 25]", "values": [
      {"measurement": "larval survival compared to the injured, untreated control", "setting": "4 μM from 2 days post-injection, days 5-11 post-fertilization", "result": "increase larval survival"},
      {"measurement": "survival as measured by Kaplan-Meier estimator", "setting": "positive control, all survival assays", "result": "statistically significant"}
    ]}
  ]
}
